Measured values from patent US20220133722A1, “PHARMACEUTICAL COMPOSITIONS” (QUE ONCOLOGY PTY LTD, priority 2019, published 2022).
Where “and” joins values, the source holds several entries; their conditions need not be identical. Equal entries are not always repeated.

Experiment: Part 2 PK study: 200 mg QD versus 100 mg BID for 10 days under fed conditions
Assay type: in vivo, human
Details: for AUC0-last / AUC0-tau / Cavg / Cmax / Fluct / Tlast / Tmax / t½ / % AUCexp / AUCinf / Accum Index / CLss/F / Cmin: fed
Method: Part 2 involved analysing the PK parameters obtained following either single (QD) or twice daily (BD) dosing of a compound of formula (Ia) under fed conditions.
Subjects were randomized 1:1 to receive a daily dose of 200 mg administered once daily in the morning (200 mg capsule) or twice daily (100 mg capsules BID) for a total of 10 days. PK blood samples were taken on Day 1 pre-dose and at 0.25, 0.5, 1.0, 1.5, 2, 3, 4, 8, 10, 12 and 16 hours post-dose. On Days 2 to 10, PK blood samples were taken once pre-dose, and on Days 11 to 14, at 24, 36, 48, 60, 72 and 96 hours post-dose.
Subjects selected for participation checked into the clinical unit and were randomized to the dosing regimen receiving their first dose of study drug on the morning of Day 1 followed by PK and safety assessments through the morning of Day 2 (24 hours post-dose). Subjects on a BID regimen received their second dose of study drug approximately 12 hours after the first dose. Subjects remained confined in the clinic for dosing BID or QD through the last dose of study drug on the morning of Day 10. PK samples were collected through 96 hrs post-dose. Subjects were discharged from the clinic following collection of the 72 hr PK sample, returning to the clinic on the morning of Day 14 for the 96 hr sample collection.
For both Parts 1 and 2, samples were processed and analysed as follows. The method extracted Q-122 and the Internal Standard (IS, Q-122 ^13C4) from human plasma using protein precipitation extraction.
The analytes were separated by HPLC on a Phenomenex Synergi Polar-RP column, and the eluates monitored by an API4000 MS/MS detector in positive MRM mode. The extract was then assayed against a calibration curve. The data were acquired and processed by the data acquisition system Analyst® (Sciex) linked directly to the API4000 MS/MS detector and then processed in Watson LIMS™ (Thermo Scientific), where applicable. The method range is from 10.0 to 2500 ng/mL using 50 μL of matrix and has a run time of approximately 3.2 minutes per sample.
Plasma PK parameters for each dosing regimen and dose level were calculated from the concentrations of Q-122 and its major metabolites measured in pre-dose and post-dose plasma samples. For each dose level, descriptive statistics (sample size, arithmetic means, geometric means, standard deviation, % coefficient of variation, minimum, median, and maximum) are presented.
The pharmacokinetic results were processed according to standard non-compartmental analytical procedures. The software used was Phoenix™ WinNonlin® v 6.4 (Pharsight Corporation, USA) and Microsoft® Excel® 2010 (Microsoft Corporation). The following PK parameters were estimated from plasma data.

[1] = 100 mg BID, Day 1, individual subjects
[2] = 100 mg BID, Day 10, individual subjects
[3] = 200 mg QD, Day 1, individual subjects

- Cmin (range over subjects) (100 mg BID dosing with food): 117 to 195 ng/mL
- change of Cavg between days 1 and 10 (100 mg BID dosing with food): doubled
- increase of mean Cmax between days 1 and 10 (100 mg BID dosing with food): less than 2 fold
- trough concentrations with BID dosing relative to QD dosing (100 mg BID versus 200 mg QD): approximately double
- Tlast [1]: 24.00 h
- Tmax [1]: 1.00 h and 1.50 h
- AUC0-tau (100 mg BID, Day 1, max): 4378 ng·h/mL
- Cavg (100 mg BID, Day 1, max): 364.87 ng/mL
- Cmax (100 mg BID, Day 1, max): 939.00 ng/mL
- Fluct (100 mg BID, Day 1, max): 270.44%
- Tlast (100 mg BID, Day 1, max): 24.00 h
- t½ (100 mg BID, Day 1, max): 9.38 h
- Cavg (100 mg BID, Day 1, mean): 299.088 ng/mL
- Fluct (100 mg BID, Day 1, mean): 241.041%
- Tlast (100 mg BID, Day 1, mean): 24.000 h
- Cavg (100 mg BID, Day 1, median): 307.51 ng/mL
- Fluct (100 mg BID, Day 1, median): 252.72%
- Tlast (100 mg BID, Day 1, median): 24.00 h
- AUC0-last (100 mg BID, Day 1, min): 5186 ng·h/mL
- AUC0-tau (100 mg BID, Day 1, min): 2727 ng·h/mL
- Cavg (100 mg BID, Day 1, min): 227.25 ng/mL
- Cmax (100 mg BID, Day 1, min): 405.00 ng/mL
- Fluct (100 mg BID, Day 1, min): 173.90%
- Tlast (100 mg BID, Day 1, min): 24.00 h
- Tmax (100 mg BID, Day 1, min): 1.00 h
- t½ (100 mg BID, Day 1, min): 3.19 h
- Tmax [2]: 1.50 h and 1.00 h
- % AUCexp (100 mg BID, Day 10, max): 8.16%
- Accum Index (100 mg BID, Day 10, max): 4.17
- CLss/F (100 mg BID, Day 10, max): 26.80 L/h
- Cavg (100 mg BID, Day 10, max): 583.47 ng/mL
- Cmin (100 mg BID, Day 10, max): 195.00 ng/mL
- Fluct (100 mg BID, Day 10, max): 240.58%
- Tlast (100 mg BID, Day 10, max): 72.00 h
- t½ (100 mg BID, Day 10, max): 30.30 h
- % AUCexp (100 mg BID, Day 10, mean): 4.679%
- CLss/F (100 mg BID, Day 10, mean): 19.340 L/h
- Cavg (100 mg BID, Day 10, mean): 453.609 ng/mL
- Cmin (100 mg BID, Day 10, mean): 145.833 ng/mL
- Fluct (100 mg BID, Day 10, mean): 193.726%
- Tlast (100 mg BID, Day 10, mean): 40.000 h
- % AUCexp (100 mg BID, Day 10, median): 4.42%
- Accum Index (100 mg BID, Day 10, median): 1.58
- CLss/F (100 mg BID, Day 10, median): 17.38 L/h
- Cavg (100 mg BID, Day 10, median): 480.30 ng/mL
- Cmin (100 mg BID, Day 10, median): 138.50 ng/mL
- Fluct (100 mg BID, Day 10, median): 200.31%
- Tlast (100 mg BID, Day 10, median): 36.00 h
- % AUCexp (100 mg BID, Day 10, min): 1.52%
- AUC0-last (100 mg BID, Day 10, min): 5510 ng·h/mL
- AUC0-tau (100 mg BID, Day 10, min): 3731 ng·h/mL
- AUCinf (100 mg BID, Day 10, min): 6000 ng·h/mL
- Accum Index (100 mg BID, Day 10, min): 1.28
- CLss/F (100 mg BID, Day 10, min): 14.28 L/h
- Cavg (100 mg BID, Day 10, min): 310.92 ng/mL
- Cmax (100 mg BID, Day 10, min): 677.00 ng/mL
- Cmin (100 mg BID, Day 10, min): 117.00 ng/mL
- Fluct (100 mg BID, Day 10, min): 152.13%
- Tlast (100 mg BID, Day 10, min): 24 h
- Tmax (100 mg BID, Day 10, min): 1.00 h
- t½ (100 mg BID, Day 10, min): 5.46 h
- Cmin (range over subjects) (200 mg QD dosing with food): 52 to 94 ng/mL
- change of Cmax and Cavg between Days 1 and 10 (200 mg QD dosing with food): neither Cmax nor Cavg changed
- Tlast [3]: 24.00 h
- AUC0-last (200 mg QD, Day 1, max): 12571 ng·h/mL
- AUC0-tau (200 mg QD, Day 1, max): 12571 ng·h/mL
- Cavg (200 mg QD, Day 1, max): 523.80 ng/mL
- Cmax (200 mg QD, Day 1, max): 2010.00 ng/mL
- Fluct (200 mg QD, Day 1, max): 501.79%
- Tlast (200 mg QD, Day 1, max): 24.00 h
- t½ (200 mg QD, Day 1, max): 17.12 h
- Cavg (200 mg QD, Day 1, mean): 335.791 ng/mL
- Fluct (200 mg QD, Day 1, mean): 372.185%
- Tlast (200 mg QD, Day 1, mean): 24.000 h
- Cavg (200 mg QD, Day 1, median): 324.48 ng/mL
- Fluct (200 mg QD, Day 1, median): 377.75%
- Tlast (200 mg QD, Day 1, median): 24.00 h
- AUC0-last (200 mg QD, Day 1, min): 1632 ng·h/mL
- AUC0-tau (200 mg QD, Day 1, min): 1632 ng·h/mL
- Cavg (200 mg QD, Day 1, min): 67.99 ng/mL
- Cmax (200 mg QD, Day 1, min): 101.00 ng/mL
- Fluct (200 mg QD, Day 1, min): 148.55%
- Tlast (200 mg QD, Day 1, min): 24.00 h
- t½ (200 mg QD, Day 1, min): 4.61 h
SMILES: c1cnc(NCc2ccc(CNc3ncccn3)cc2)nc1 [Q-122]
- AUC0-last [1]: 6822 ng·h/mL and 7028 ng·h/mL and 6463 ng·h/mL and 6090 ng·h/mL and 5186 ng·h/mL
- AUC0-tau [1]: 3781 ng·h/mL and 2727 ng·h/mL and 4254 ng·h/mL and 3600 ng·h/mL and 4378 ng·h/mL
- Cavg [1]: 354.49 ng/mL and 299.97 ng/mL and 364.87 ng/mL and 232.90 ng/mL and 315.05 ng/mL and 227.25 ng/mL
- Cmax [1]: 939.00 ng/mL and 773.00 ng/mL and 845.00 ng/mL and 405.00 ng/mL and 852.00 ng/mL and 563.00 ng/mL
- Fluct [1]: 264.89% and 257.70% and 231.59% and 173.90% and 270.44% and 247.74%
- t½ [1]: 9.38 h and 6.21 h and 3.97 h and 3.19 h and 5.52 h and 4.66 h
- % AUCexp [2]: 2.24% and 1.52% and 8.16% and 4.45% and 7.33% and 4.38%
- AUC0-last [2]: 7715 ng·h/mL and 5510 ng·h/mL and 6477 ng·h/mL and 5615 ng·h/mL and 7597 ng·h/mL
- AUC0-tau [2]: 5982 ng·h/mL and 3731 ng·h/mL and 5545 ng·h/mL and 4118 ng·h/mL and 6283 ng·h/mL
- AUCinf [2]: 7834 ng·h/mL and 6000 ng·h/mL and 6779 ng·h/mL and 6059 ng·h/mL and 7945 ng·h/mL
- Accum Index [2]: 2.06 and 1.33 and 4.17 and 1.36 and 1.79 and 1.28
- CLss/F [2]: 14.28 L/h and 16.72 L/h and 26.80 L/h and 18.03 L/h and 24.29 L/h and 15.92 L/h
- Cavg [2]: 583.47 ng/mL and 498.51 ng/mL and 310.92 ng/mL and 462.09 ng/mL and 343.13 ng/mL and 523.54 ng/mL
- Cmax [2]: 1160.00 ng/mL and 865.00 ng/mL and 1050.00 ng/mL and 677.00 ng/mL and 1070.00 ng/mL
- Cmin [2]: 122.00 ng/mL (2×) and 164.00 ng/mL and 117.00 ng/mL and 155.00 ng/mL and 195.00 ng/mL
- Fluct [2]: 201.90% and 199.80% and 240.58% and 200.83% and 152.13% and 167.13%
- Tlast [2]: 48.00 h and 36.00 h (2×) and 72.00 h and 24.00 h (2×)
- t½ [2]: 12.52 h and 6.01 h and 30.30 h and 6.26 h and 10.19 h and 5.46 h
- AUC0-last [3]: 6439 ng·h/mL and 1632 ng·h/mL and 6744 ng·h/mL and 8831 ng·h/mL and 12137 ng·h/mL and 12571 ng·h/mL
- AUC0-tau [3]: 8831 ng·h/mL and 12137 ng·h/mL and 12571 ng·h/mL and 6439 ng·h/mL and 1632 ng·h/mL and 6744 ng·h/mL
- Cavg [3]: 268.28 ng/mL and 67.99 ng/mL and 290.99 ng/mL and 367.97 ng/mL and 505.70 ng/mL and 523.80 ng/mL
- Cmax [3]: 980.00 ng/mL and 101.00 ng/mL and 1410.00 ng/mL and 1700.00 ng/mL and 1880.00 ng/mL and 2010.00 ng/mL
- Fluct [3]: 365.28% and 148.55% and 501.79% and 461.99% and 371.76% and 383.73%
- t½ [3]: 7.07 h and 5.60 h and 4.61 h and 9.17 h and 17.12 h and 8.29 h
